Measured values published in PubChem BioAssay AID256 (DTP/NCI, 2004).
Several values for one entry are separate records, joined by “and”; a condition that tells them apart may be missing. Equal values may be shown once. Toxic doses and inconclusive results are not listed.

Test system: CD2F1 mice, L1210 leukemia ip, survival T/C
Assay: NCI In Vivo Anticancer Drug Screen. Data for tumor model L1210 Leukemia (intraperitoneal) in CD2F1 (CDF1) mice
Conditions: higher = longer survival
Procedure, shortened: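 Tumor-bearing mice (transplanted tumor) were split into treated and vehicle control groups, and the measured endpoint of each treated group was divided by that of its vehicle controls.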

[1] = endpoint: mean survival time, dose: 100.0 mg/kg/injection, schedule: Q04DX003 (ip), vehicle: saline with Tween-80
[2] = endpoint: mean survival time, dose: 200.0 mg/kg/injection, schedule: Q04DX003 (ip), vehicle: saline with Tween-80
[3] = endpoint: mean survival time, dose: 400.0 mg/kg/injection, schedule: Q04DX003 (ip), vehicle: saline with Tween-80
[4] = endpoint: mean survival time, dose: 50.0 mg/kg/injection, schedule: Q04DX002 (ip), vehicle: saline
[5] = endpoint: mean survival time, dose: 100.0 mg/kg/injection, schedule: Q04DX002 (ip), vehicle: saline
[6] = endpoint: mean survival time, dose: 50.0 mg/kg/injection, schedule: Q01DX009 (ip), vehicle: saline with Tween-80
[7] = endpoint: mean survival time, dose: 100.0 mg/kg/injection, schedule: Q01DX009 (ip), vehicle: saline with Tween-80
[8] = endpoint: mean survival time, dose: 200.0 mg/kg/injection, schedule: Q01DX009 (ip), vehicle: saline with Tween-80
[9] = endpoint: mean survival time, dose: 100.0 mg/kg/injection, schedule: Q04DX002 (ip), vehicle: saline with Tween-80
[10] = endpoint: mean survival time, dose: 200.0 mg/kg/injection, schedule: Q04DX002 (ip), vehicle: saline with Tween-80
[11] = endpoint: mean survival time, dose: 400.0 mg/kg/injection, schedule: Q04DX002 (ip), vehicle: saline with Tween-80
[12] = endpoint: mean survival time, dose: 12.5 mg/kg/injection, schedule: Q01DX009 (ip), vehicle: saline with Tween-80
[13] = endpoint: mean survival time, dose: 25.0 mg/kg/injection, schedule: Q01DX009 (ip), vehicle: saline with Tween-80
[14] = endpoint: mean survival time, dose: 400.0 mg/kg/injection, schedule: Q01DX009 (ip), vehicle: saline with Tween-80
[15] = endpoint: mean survival time, dose: 100.0 mg/kg/injection, schedule: Q01DX001 (ip), vehicle: saline with Tween-80
[16] = endpoint: mean survival time, dose: 200.0 mg/kg/injection, schedule: Q01DX001 (ip), vehicle: saline with Tween-80
[17] = endpoint: mean survival time, dose: 400.0 mg/kg/injection, schedule: Q01DX001 (ip), vehicle: saline with Tween-80

## O=C(Nc1ccc(C2=NCCN2)cc1)c1ccc(C(=O)Nc2ccc(C3=NCCN3)cc2)cc1
endpoint: mean survival time, dose: 1.25 mg/kg/injection, schedule: Q01DX008 (iv), vehicle: other
  T/C: 103 % of control
endpoint: mean survival time, dose: 2.5 mg/kg/injection, schedule: Q01DX008 (iv), vehicle: other
  T/C: 103 % of control
endpoint: mean survival time, dose: 5.0 mg/kg/injection, schedule: Q01DX008 (iv), vehicle: other
  T/C: 108 % of control
endpoint: mean survival time, dose: 50.0 mg/kg/injection, schedule: Q04DX003 (ip), vehicle: water
  T/C: 112 % of control
endpoint: mean survival time, dose: 100.0 mg/kg/injection, schedule: Q01DX007 (ip), vehicle: water
  T/C: 153 % of control
endpoint: mean survival time, dose: 100.0 mg/kg/injection, schedule: Q04DX003 (ip), vehicle: water
  T/C: 118 % of control
endpoint: mean survival time, dose: 200.0 mg/kg/injection, schedule: Q01DX007 (ip), vehicle: water
  T/C: 170 % of control
endpoint: mean survival time, dose: 200.0 mg/kg/injection, schedule: Q01DX009 (ip), vehicle: water
  T/C: 186 % of control

## CN(C)S(=O)(=O)C1(c2ccccc2)CCCC1
[1]
  T/C: 102 % of control
[2]
  T/C: 105 % of control
[3]
  T/C: 100 % of control

## CCOC(=O)c1ccc(-c2ccc(C(=O)OCC)o2)o1
[4]
  T/C: 101 % of control
[5]
  T/C: 93 % of control
endpoint: mean survival time, dose: 200.0 mg/kg/injection, schedule: Q04DX002 (ip), vehicle: saline
  T/C: 97 % of control

## O=C1C(Br)=C(Br)C(=O)C(Br)=C1Br
[6]
  T/C: 91 % of control
[7]
  T/C: 94 % of control
[8]
  T/C: 86 % of control

## Nc1nc(-c2ccccc2)cs1
[1]
  T/C: 105 % of control

## CCCCC(OC(=O)c1ccc([N+](=O)[O-])cc1)C(C)[N+](=O)[O-] (stereo not given)
[1]
  T/C: 104 % of control
[2]
  T/C: 97 % of control
[3]
  T/C: 104 % of control

## O=C1NCC(c2ccccc2)(C2CC2)O1 (stereo not given)
[9]
  T/C: 100 % of control
[10]
  T/C: 100 % of control
[11]
  T/C: 100 % of control

## Brc1cscc1-c1cccc2ccccc12
[12]
  T/C: 95 % of control
[13]
  T/C: 95 % of control
[6]
  T/C: 95 % of control

## COc1cc(OC)c(NC(=O)OCCOc2ccc(Br)cc2)cc1Cl
[6]
  T/C: 90 % of control
[7]
  T/C: 90 % of control
[8]
  T/C: 97 % of control

## CCCCOC(=O)/C=C/C(=O)OCCCC
[1]
  T/C: 102 % of control
[2]
  T/C: 102 % of control
[3]
  T/C: 105 % of control

## O=C(C[n+]1cccc(C(=O)Nc2ccccc2)c1)NCc1ccccc1
endpoint: mean survival time, dose: 100.0 mg/kg/injection, schedule: Q04DX003 (ip), vehicle: saline
  T/C: 100 % of control
endpoint: mean survival time, dose: 200.0 mg/kg/injection, schedule: Q04DX003 (ip), vehicle: saline
  T/C: 96 % of control
endpoint: mean survival time, dose: 400.0 mg/kg/injection, schedule: Q04DX003 (ip), vehicle: saline
  T/C: 96 % of control

## CN1C2CCC1CNC2
[1]
  T/C: 103 % of control
[2]
  T/C: 101 % of control
[3]
  T/C: 103 % of control

## c1ccc(C2SCCCS2)cc1
endpoint: mean survival time, dose: 100.0 mg/kg/injection, schedule: Q04DX003 (ip), vehicle: other
  T/C: 101 % of control
endpoint: mean survival time, dose: 200.0 mg/kg/injection, schedule: Q04DX003 (ip), vehicle: other
  T/C: 97 % of control
endpoint: mean survival time, dose: 400.0 mg/kg/injection, schedule: Q04DX003 (ip), vehicle: other
  T/C: 101 % of control

## COc1ccc(CC#N)cc1OC
endpoint: mean survival time, dose: 3.75 mg/kg/injection, schedule: Q01DX009 (ip), vehicle: saline with Tween-80
  T/C: 95 % of control
endpoint: mean survival time, dose: 3.75 mg/kg/injection, schedule: Q04DX003 (ip), vehicle: saline with Tween-80
  T/C: 107 % of control
endpoint: mean survival time, dose: 7.5 mg/kg/injection, schedule: Q01DX009 (ip), vehicle: saline with Tween-80
  T/C: 95 % of control
endpoint: mean survival time, dose: 7.5 mg/kg/injection, schedule: Q04DX003 (ip), vehicle: saline with Tween-80
  T/C: 103 % of control
endpoint: mean survival time, dose: 15.0 mg/kg/injection, schedule: Q01DX009 (ip), vehicle: saline with Tween-80
  T/C: 95 % of control
endpoint: mean survival time, dose: 15.0 mg/kg/injection, schedule: Q04DX003 (ip), vehicle: saline with Tween-80
  T/C: 103 % of control

## CCCCCCC(O)C/C=C\CCCCCCCC(=O)O (stereo not given)
[4]
  T/C: 86 % of control
[5]
  T/C: 90 % of control

## Nc1nc(N)c2c(ccc3c2ccn3Cc2cccc([N+](=O)[O-])c2)n1
endpoint: median survival time, dose: 0.75 mg/kg/injection, schedule: Q01DX009 (ip), vehicle: saline with Tween-80
  T/C: 104 % of control
endpoint: median survival time, dose: 1.5 mg/kg/injection, schedule: Q01DX009 (ip), vehicle: saline with Tween-80
  T/C: 111 % of control
endpoint: median survival time, dose: 1.56 mg/kg/injection, schedule: Q01DX009 (ip), vehicle: saline with Tween-80
  T/C: 110 % of control
endpoint: median survival time, dose: 3.0 mg/kg/injection, schedule: Q01DX009 (ip), vehicle: saline with Tween-80
  T/C: 117 % of control
endpoint: median survival time, dose: 3.12 mg/kg/injection, schedule: Q01DX009 (ip), vehicle: saline with Tween-80
  T/C: 118 % of control
endpoint: median survival time, dose: 12.5 mg/kg/injection, schedule: Q01DX009 (ip), vehicle: saline with Tween-80
  T/C: 90 % of control and 98 % of control
endpoint: median survival time, dose: 25.0 mg/kg/injection, schedule: Q01DX009 (ip), vehicle: saline with Tween-80
  T/C: 102 % of control and 103 % of control

## CS(C)(=O)=C/C(=C\C(=O)c1ccccc1)c1ccccc1
endpoint: mean survival time, dose: 25.0 mg/kg/injection, schedule: Q01DX009 (ip), vehicle: saline
  T/C: 94 % of control
endpoint: mean survival time, dose: 50.0 mg/kg/injection, schedule: Q01DX009 (ip), vehicle: saline
  T/C: 94 % of control
endpoint: mean survival time, dose: 100.0 mg/kg/injection, schedule: Q01DX009 (ip), vehicle: saline
  T/C: 94 % of control

## O=C(CCc1ccc(O)cc1)N/N=C/c1ccc2c(c1)OCO2
[1]
  T/C: 90 % of control
[2]
  T/C: 90 % of control
[3]
  T/C: 88 % of control

## CC(C)c1cccc(O)c(=O)c1
[6]
  T/C: 102 % of control
[7]
  T/C: 100 % of control

## O=C(CNC(=O)c1ccccc1)N/N=C/c1ccco1
[7]
  T/C: 94 % of control
[8]
  T/C: 90 % of control
[14]
  T/C: 95 % of control

## CCCC(=O)NC1=C(Cl)C(=O)c2ccccc2C1=O
endpoint: mean survival time, dose: 5.0 mg/kg/injection, schedule: Q01DX001 (ip), vehicle: saline
  T/C: 88 % of control
endpoint: mean survival time, dose: 10.0 mg/kg/injection, schedule: Q01DX001 (ip), vehicle: saline
  T/C: 103 % of control
endpoint: mean survival time, dose: 20.0 mg/kg/injection, schedule: Q01DX001 (ip), vehicle: saline
  T/C: 95 % of control

## O=C(C[n+]1ccccc1)N/N=C/c1ccccc1Cl
[7]
  T/C: 105 % of control

## CSc1ncnc2c1c(C#N)cn2C1OC(CO)C(O)C1O (stereo not given)
endpoint: mean survival time, dose: 32.0 mg/kg/injection, schedule: Q01DX009 (ip), vehicle: saline
  T/C: 124 % of control
endpoint: mean survival time, dose: 53.0 mg/kg/injection, schedule: Q01DX009 (ip), vehicle: saline
  T/C: 87 % of control

## O=[N+]([O-])c1ccc2c(c1)C(Br)c1cc(Br)ccc1-2 (stereo not given)
[7]
  T/C: 93 % of control
[1]
  T/C: 100 % of control
[8]
  T/C: 88 % of control
[2]
  T/C: 100 % of control
[14]
  T/C: 90 % of control
[3]
  T/C: 92 % of control

## CC(=O)OCC1OC(OC(C)=O)C(NC(=S)N(C)N=O)C(OC(C)=O)C1OC(C)=O (stereo not given)
endpoint: mean survival time, dose: 12.5 mg/kg/injection, schedule: Q04DX002 (ip), vehicle: distilled water + Tween-80
  T/C: 106 % of control
endpoint: mean survival time, dose: 25.0 mg/kg/injection, schedule: Q04DX002 (ip), vehicle: distilled water + Tween-80
  T/C: 103 % of control
endpoint: mean survival time, dose: 50.0 mg/kg/injection, schedule: Q04DX002 (ip), vehicle: distilled water + Tween-80
  T/C: 113 % of control
endpoint: mean survival time, dose: 100.0 mg/kg/injection, schedule: Q04DX002 (ip), vehicle: distilled water + Tween-80
  T/C: 118 % of control and 120 % of control

## Nc1ccc(Nc2ccc([N+](=O)[O-])cc2[N+](=O)[O-])cc1
[15]
  T/C: 89 % of control
[16]
  T/C: 96 % of control
[17]
  T/C: 96 % of control

## CCCCOc1cc(C(=O)NCCN(CC)CC)c2ccccc2n1
endpoint: mean survival time, dose: 6.25 mg/kg/injection, schedule: Q01DX009 (ip), vehicle: saline with Tween-80
  T/C: 102 % of control
[12]
  T/C: 108 % of control
[13]
  T/C: 103 % of control

## C=CCOP(=O)(OCC=C)C1(Cl)C(Cl)=C(Cl)C(=O)C(Cl)=C1Cl
endpoint: mean survival time, dose: 25.0 mg/kg/injection, schedule: Q01DX009 (ip), vehicle: saline + alcohol
  T/C: 96 % of control
endpoint: mean survival time, dose: 50.0 mg/kg/injection, schedule: Q01DX009 (ip), vehicle: saline + alcohol
  T/C: 96 % of control
endpoint: mean survival time, dose: 100.0 mg/kg/injection, schedule: Q01DX009 (ip), vehicle: saline + alcohol
  T/C: 96 % of control
[7]
  T/C: 100 % of control

## CC1(C)C(=O)OC(=O)C(C)(Br)C1(C)C (stereo not given)
[15]
  T/C: 104 % of control
[16]
  T/C: 96 % of control
[17]
  T/C: 101 % of control

## O=S(O)O.O=S(O)O.[Co].[NH2-].[NH2-].[NH2-].[NH2-]
[9]
  T/C: 108 % of control
[10]
  T/C: 108 % of control
[11]
  T/C: 119 % of control
